Data on ten molecules can be found in patent US20230064983A1 (priority 2020, published 2023).

Where “and” joins values, the source holds several entries; their conditions need not be identical. Equal values may be shown once.

The target of assay [1] is T1, EGFR with insertion SVD between D770 and N771 (mutEGFR D770_N771insSVD) (Homo sapiens, UniProt P00533, DUP768-770).
T1 construct: amino acids R669 to A1210; made in house; host or cells: Sf9 insect cells (baculovirus)
Nature of the assay: Exon20-Mutant-EGFR(D770_N771insSVD) kinase assay (TR-FRET). In kind it is biochemical. The conditions noted are these: 2 mM ATP, Table 2.

The next assay deals with T2, Bub1 (Homo sapiens, UniProt O43683).
T2 construct: catalytic domain of human Bub1 (amino acids 704-1085); His6 (N); made in house; host or cells: insect cells (Hi5)
The assay is described as follows: Bub1 high ATP kinase assay (TR-FRET). The note with it: Bub1 high ATP (2 mM) IC50, TR-FRET, 2 mM ATP; Table 3. In kind it is biochemical. An outline of the steps:
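Enzyme was His6-tagged human Bub1 catalytic domain (aa 704-1085) from Hi5 insect cells, typically about 200 ng/ml, with a biotinylated peptide substrate at high ATP. Reaction ran 60 min at 22 °C, then was stopped with EDTA. Phosphopeptide was detected by TR-FRET (anti-phosphoserine antibody, Eu-labelled anti-mouse IgG, streptavidin-XL665), read as the 665/620 nm emission ratio.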
In general terms: In TR-FRET formats the signal depends on donor and acceptor labels being close together.

Assay [2] concerns the target Ba/F3-EGFR-D770_N771insSVD cells (Homo sapiens, UniProt P00533, DUP768-770, cells depend on it). The assay is described as follows: Ba/F3 cell survival assay, EGFR D770_N771insSVD. Type of assay: cell-based. The conditions noted are these: Cell Titer-Glo, 48 h, without IL-3; Table 4; read-out: BA/F3 (insSVD) IC50.
For a further assay, the target named is Ba/F3-EGFR-WT cells (Homo sapiens, UniProt P00533). Nature of the assay: Ba/F3 cell survival assay, wild type EGFR. In kind it is cell-based. The note with it: Cell Titer-Glo, 48 h, with 10 ng/mL EGF; Table 4; read-out: BA/F3 (wild type) IC50. A general note: Cellular ATP, detected with luciferase, serves as a proxy for viable cell number.
Chain of Ba/F3-EGFR-WT cells (P00533 whole entry, looked up, change not shown): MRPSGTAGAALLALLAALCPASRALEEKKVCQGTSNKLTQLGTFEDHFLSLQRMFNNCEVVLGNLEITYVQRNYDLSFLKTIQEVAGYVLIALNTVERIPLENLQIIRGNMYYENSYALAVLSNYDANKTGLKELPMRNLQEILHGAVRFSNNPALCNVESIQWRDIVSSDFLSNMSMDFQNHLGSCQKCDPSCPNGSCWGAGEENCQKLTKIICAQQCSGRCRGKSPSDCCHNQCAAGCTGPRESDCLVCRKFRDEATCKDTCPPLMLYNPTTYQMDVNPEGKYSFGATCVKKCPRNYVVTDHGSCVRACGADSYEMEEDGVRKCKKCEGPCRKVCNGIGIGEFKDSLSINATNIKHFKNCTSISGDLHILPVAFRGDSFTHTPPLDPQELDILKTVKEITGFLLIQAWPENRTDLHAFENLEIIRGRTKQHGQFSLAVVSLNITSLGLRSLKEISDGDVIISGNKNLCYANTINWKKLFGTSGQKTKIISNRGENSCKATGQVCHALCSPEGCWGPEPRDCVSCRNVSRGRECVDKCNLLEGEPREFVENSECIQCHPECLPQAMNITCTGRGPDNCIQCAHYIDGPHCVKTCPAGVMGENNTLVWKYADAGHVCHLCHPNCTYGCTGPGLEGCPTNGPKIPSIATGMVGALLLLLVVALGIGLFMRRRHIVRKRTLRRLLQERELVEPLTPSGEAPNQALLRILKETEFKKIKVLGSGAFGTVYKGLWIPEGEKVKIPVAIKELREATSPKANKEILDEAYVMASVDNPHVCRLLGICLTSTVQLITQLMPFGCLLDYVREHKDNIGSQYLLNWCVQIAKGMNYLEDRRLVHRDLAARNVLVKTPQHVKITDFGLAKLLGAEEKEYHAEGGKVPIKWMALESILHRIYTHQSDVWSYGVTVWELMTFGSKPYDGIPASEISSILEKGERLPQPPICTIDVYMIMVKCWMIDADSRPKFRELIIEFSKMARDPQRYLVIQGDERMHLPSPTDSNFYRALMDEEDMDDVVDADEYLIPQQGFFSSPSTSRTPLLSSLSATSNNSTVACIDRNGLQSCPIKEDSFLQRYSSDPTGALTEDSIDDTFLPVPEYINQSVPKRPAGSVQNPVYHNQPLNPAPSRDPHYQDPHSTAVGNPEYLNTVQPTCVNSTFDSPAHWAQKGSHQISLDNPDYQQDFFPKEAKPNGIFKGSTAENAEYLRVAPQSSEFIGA

T1 sequence (P00533 other isoform, or with tags, fused parts or gaps DUP768-770): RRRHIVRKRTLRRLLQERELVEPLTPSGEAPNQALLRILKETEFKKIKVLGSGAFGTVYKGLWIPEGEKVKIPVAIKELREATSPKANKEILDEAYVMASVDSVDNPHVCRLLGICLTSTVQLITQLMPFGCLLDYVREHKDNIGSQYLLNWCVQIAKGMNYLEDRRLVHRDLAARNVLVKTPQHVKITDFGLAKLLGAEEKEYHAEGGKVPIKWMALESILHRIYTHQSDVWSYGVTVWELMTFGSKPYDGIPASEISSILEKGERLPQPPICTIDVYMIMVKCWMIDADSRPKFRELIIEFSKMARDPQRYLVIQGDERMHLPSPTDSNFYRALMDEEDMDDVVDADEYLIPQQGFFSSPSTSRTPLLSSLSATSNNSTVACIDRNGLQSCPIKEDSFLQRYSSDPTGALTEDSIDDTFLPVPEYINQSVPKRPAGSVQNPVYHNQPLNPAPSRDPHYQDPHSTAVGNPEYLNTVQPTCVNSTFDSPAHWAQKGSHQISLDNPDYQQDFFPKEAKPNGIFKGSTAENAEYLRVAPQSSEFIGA
T2 sequence (O43683 704-1085): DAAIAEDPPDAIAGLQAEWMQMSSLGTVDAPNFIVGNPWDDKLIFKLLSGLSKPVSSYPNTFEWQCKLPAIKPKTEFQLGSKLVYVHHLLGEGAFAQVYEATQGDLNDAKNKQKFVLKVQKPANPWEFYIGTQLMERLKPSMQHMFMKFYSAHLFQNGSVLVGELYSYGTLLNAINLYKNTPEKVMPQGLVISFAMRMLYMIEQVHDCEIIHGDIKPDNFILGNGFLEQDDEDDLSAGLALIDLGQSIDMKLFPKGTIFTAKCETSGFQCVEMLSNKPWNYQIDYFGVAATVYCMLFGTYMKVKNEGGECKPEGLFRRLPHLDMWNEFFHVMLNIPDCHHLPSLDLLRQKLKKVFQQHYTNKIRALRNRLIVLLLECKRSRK
Chain of Ba/F3-EGFR-D770_N771insSVD cells (P00533 with tags, fused parts or gaps DUP768-770): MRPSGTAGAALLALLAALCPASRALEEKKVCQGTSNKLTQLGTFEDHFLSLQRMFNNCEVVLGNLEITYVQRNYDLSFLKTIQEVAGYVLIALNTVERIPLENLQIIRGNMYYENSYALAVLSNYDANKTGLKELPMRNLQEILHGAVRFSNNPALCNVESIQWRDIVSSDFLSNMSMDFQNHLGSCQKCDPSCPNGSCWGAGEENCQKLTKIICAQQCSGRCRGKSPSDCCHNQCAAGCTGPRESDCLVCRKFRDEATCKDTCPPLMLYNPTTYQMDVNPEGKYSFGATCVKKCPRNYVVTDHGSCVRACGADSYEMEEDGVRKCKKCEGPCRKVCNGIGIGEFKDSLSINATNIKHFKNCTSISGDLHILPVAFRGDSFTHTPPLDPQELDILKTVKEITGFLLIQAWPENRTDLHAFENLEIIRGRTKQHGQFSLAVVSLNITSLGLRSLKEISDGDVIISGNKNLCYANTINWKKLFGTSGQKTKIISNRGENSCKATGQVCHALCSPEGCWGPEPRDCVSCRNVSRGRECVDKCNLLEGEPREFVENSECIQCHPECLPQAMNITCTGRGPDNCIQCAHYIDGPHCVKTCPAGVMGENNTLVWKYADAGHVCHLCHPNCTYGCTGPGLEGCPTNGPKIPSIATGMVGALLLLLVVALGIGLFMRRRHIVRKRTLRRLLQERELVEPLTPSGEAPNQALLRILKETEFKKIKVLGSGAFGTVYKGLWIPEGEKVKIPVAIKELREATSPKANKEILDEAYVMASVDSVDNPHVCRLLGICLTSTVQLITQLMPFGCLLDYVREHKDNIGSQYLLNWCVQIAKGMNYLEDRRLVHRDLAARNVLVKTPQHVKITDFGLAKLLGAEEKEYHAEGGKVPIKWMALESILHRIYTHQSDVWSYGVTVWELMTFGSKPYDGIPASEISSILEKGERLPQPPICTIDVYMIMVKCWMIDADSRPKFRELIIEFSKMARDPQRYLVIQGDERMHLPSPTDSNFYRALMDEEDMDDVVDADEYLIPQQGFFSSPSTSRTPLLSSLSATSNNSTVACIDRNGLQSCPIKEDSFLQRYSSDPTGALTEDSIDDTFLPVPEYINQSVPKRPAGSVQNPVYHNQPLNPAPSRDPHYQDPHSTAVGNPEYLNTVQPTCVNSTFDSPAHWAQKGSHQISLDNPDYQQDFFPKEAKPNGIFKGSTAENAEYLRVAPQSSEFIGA

As to `Cc1c(Cl)cccc1Nc1c(-c2ccncc2OC[C@@H]2CCCO2)[nH]c2c1C(=O)NCC2C` (single isomer, unassigned) [Example 60], in assay [1], the “mutEGFR (D770_N771insSVD) kinase assay IC50” value (“mutEGFR” below) turned out to be 0.603 nM. The molecule further displayed an IC50 against Bub1 of 1620 nM. In addition, the GI50 turned out to be 175 nM in assay [2] and 1070 nM at Ba/F3-EGFR-WT cells.
The corresponding values for `Cc1c(Cl)cccc1Nc1c(-c2ccncc2OCC2COCCO2)[nH]c2c1C(=O)NCC2C` (single isomer, unassigned) [Example 68, 3-(3-chloro-2-methyl-anilino)-2-[3-(1,4-dioxan-2-ylmethoxy)-4-pyridyl]-7-methyl-1,5,6,7-tetrahydropyrrolo[3,2-c]pyridin-4-one] are 0.3 nM, 5130 nM, 63.7 nM and 1380 nM.
Regarding `Cc1c(Cl)cccc1Nc1c(-c2ccncc2OCC2COCCO2)[nH]c2c1C(=O)NCC2C` (single isomer, unassigned) [Example 69, 3-(3-chloro-2-methyl-anilino)-2-[3-(1,4-dioxan-2-ylmethoxy)-4-pyridyl]-7-methyl-1,5,6,7-tetrahydropyrrolo[3,2-c]pyridin-4-one], in assay [1], the “mutEGFR” value was 0.269 nM. This molecule also registered an IC50 on Bub1 of 1730 nM. In addition, the GI50 in assay [2] stood at 72.4 nM; on Ba/F3-EGFR-WT cells, 2180 nM.
The corresponding values for `Cc1c(Cl)cccc1Nc1c(-c2ccncc2OCC2COCCO2)[nH]c2c1C(=O)NCC2C` (single isomer, unassigned) [Example 70, 3-(3-chloro-2-methyl-anilino)-2-[3-(1,4-dioxan-2-ylmethoxy)-4-pyridyl]-7-methyl-1,5,6,7-tetrahydropyrrolo[3,2-c]pyridin-4-one] are 0.255 nM, 1550 nM, 224 nM and 4630 nM.
For the molecule `COc1c(Cl)cccc1Nc1c(-c2ccncc2OCC2OCCC2(F)F)[nH]c2c1C(=O)N[C@H](C)C2` (single isomer, unassigned) [Example 72], the “mutEGFR” value in assay [1] was found to be 0.151 nM. The IC50 against Bub1 stood at 7070 nM. Also, the results for the GI50 (in assay [2]; at Ba/F3-EGFR-WT cells) were 36.6 nM and 628 nM, respectively.
As to `COc1c(Cl)cccc1Nc1c(-c2ccncc2OCC2OCCC2(F)F)[nH]c2c1C(=O)N[C@H](C)C2` (single isomer, unassigned) [Example 73], the “mutEGFR” value in assay [1] is 0.179 nM. Besides, at Bub1, the IC50 amounted to 4060 nM. For the same molecule, the GI50 was 55.3 nM in assay [2] and 643 nM on Ba/F3-EGFR-WT cells.
The corresponding values for `COc1c(Cl)cccc1Nc1c(-c2ccncc2OCC2OCCCC2(F)F)[nH]c2c1C(=O)N[C@H](C)C2` (single isomer, unassigned) [Example 75] are 0.104 nM, 11100 nM, 18.2 nM and 264 nM.
Turning to `COc1c(Cl)cccc1Nc1c(-c2ccncc2OCC2OCCCC2(F)F)[nH]c2c1C(=O)N[C@H](C)C2` (single isomer, unassigned) [Example 76], the “mutEGFR” value in assay [1] was 0.24 nM. The IC50 at Bub1 is > 5700 nM. Further, the GI50 in assay [2] came out at 177 nM; on Ba/F3-EGFR-WT cells, 2440 nM.
On to `COc1c(Cl)cccc1Nc1c(-c2ccncc2OCC2COC(C)(C)CO2)[nH]c2c1C(=O)N[C@H](C)C2` (single isomer, unassigned) [Example 78], for which the “mutEGFR” value in assay [1] amounted to 0.26 nM. The IC50 against Bub1 is > 20000 nM. The GI50 is 20.7 nM in assay [2] and 488 nM on Ba/F3-EGFR-WT cells.
As to `COc1c(Cl)cccc1Nc1c(-c2ccncc2OCC2COC(C)(C)CO2)[nH]c2c1C(=O)N[C@H](C)C2` (single isomer, unassigned) [Example 79], the “mutEGFR” value in assay [1] turned out to be 0.455 nM. Also, at Bub1, the IC50 was 17300 nM and > 20000 nM. The GI50 was found to be 151 nM in assay [2] and 1910 nM at Ba/F3-EGFR-WT cells.

As usually defined, the IC50 is the point on the concentration scale where inhibition reaches its midpoint.
